Test results reported in the supplement of paper PMC10307832.

How the values were obtained:
Assay in all cases: relative viability (nuclei count vs DMSO), 5 days (fraction); higher = more cells survive
[1] = compound: CCN1CCN(c2ccc(Nc3cc(N(C)C(=O)Nc4c(Cl)c(OC)cc(OC)c4Cl)ncn3)cc2)CC1 [BGJ398] + Cc1cc(Nc2cc(N3CCN(C)CC3)nc(Sc3ccc(NC(=O)C4CC4)cc3)n2)n[nH]1 [Tozasertib] (partner 0.1 µM)
In short: (§1)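 Cells from lung cancer lines were seeded into 1536-well plates and, one day later, dosed by pin tool. Treatments were either a single drug or a fixed dose of an anchor drug with five library-drug doses (not always all listed) in √10 steps. After 5 days, nuclei were stained in a one-step fixation (final 0.05% Triton X-100, 1% formaldehyde, 1 ug/ml Hoechst) and counted on 4× images, and relative viability is the treated-to-vehicle nuclei ratio, as the median of duplicate plates.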

[2] = compound: CCN1CCN(c2ccc(Nc3cc(N(C)C(=O)Nc4c(Cl)c(OC)cc(OC)c4Cl)ncn3)cc2)CC1 [BGJ398] + Cc1nc(NC(=O)N2CCC[C@H]2C(N)=O)sc1-c1ccnc(C(C)(C)C(F)(F)F)c1 [Alpelisib] (partner 2 µM)
In short: as §1

[3] = compound: CCN1CCN(c2ccc(Nc3cc(N(C)C(=O)Nc4c(Cl)c(OC)cc(OC)c4Cl)ncn3)cc2)CC1 [BGJ398] + CC(=O)c1c(C)c2cnc(Nc3ccc(N4CCNCC4)cn3)nc2n(C2CCCC2)c1=O [Palbociclib] (partner 0.5 µM)
In short: as §1

[4] = compound: CCN1CCN(c2ccc(Nc3cc(N(C)C(=O)Nc4c(Cl)c(OC)cc(OC)c4Cl)ncn3)cc2)CC1 [BGJ398] + N=C(N)NC(=N)NCCc1ccccc1 [Phenformin] (partner 250 µM)
In short: as §1

Cell Line | relative viability ([1]; first compound 0.01 µM) | relative viability ([1]; first compound 0.03162 µM) | relative viability ([1]; first compound 0.1 µM) | relative viability ([1]; first compound 0.3162 µM) | relative viability ([1]; first compound 1 µM) | relative viability ([2]; first compound 0.01 µM) | relative viability ([2]; first compound 0.03162 µM) | relative viability ([2]; first compound 0.1 µM) | relative viability ([2]; first compound 0.3162 µM) | relative viability ([2]; first compound 1 µM) | relative viability ([3]; first compound 0.01 µM) | relative viability ([3]; first compound 0.03162 µM) | relative viability ([3]; first compound 0.1 µM) | relative viability ([3]; first compound 0.3162 µM) | relative viability ([3]; first compound 1 µM) | relative viability ([4]; first compound 0.01 µM) | relative viability ([4]; first compound 0.03162 µM) | relative viability ([4]; first compound 0.1 µM) | relative viability ([4]; first compound 0.3162 µM) | relative viability ([4]; first compound 1 µM)
HCC-15 | 0.351 | 0.43 | 0.436 | 0.349 | 0.389 | 0.88 | 0.909 | 0.976 | 0.91 | 1.02 | 0.713 | 0.743 | 0.79 | 0.769 | 0.753 | 0.439 | 0.497 | 0.504 | 0.475 | 0.496
HCC-44 | 0.77 | 0.947 | 1.07 | 1.1 | 0.698 | 0.8 | 0.761 | 0.763 | 0.856 | 0.815 | 0.919 | 0.962 | 1.03 | 1.02 | 0.856 | 0.213 | 0.349 | 0.193 | 0.195 | 0.161
HCC-78 | 0.355 | 0.461 | 0.445 | 0.419 | 0.476 | 0.274 | 0.311 | 0.378 | 0.366 | 0.338 | 0.44 | 0.472 | 0.492 | 0.455 | 0.459 | 0.67 | 0.609 | 0.735 | 0.731 | 0.607
HCC-366 | 0.128 | 0.111 | 0.092 | 0.0966 | 0.0852 | 0.417 | 0.478 | 0.676 | 0.404 | 0.348 | 0.435 | 0.415 | 0.422 | 0.388 | 0.476 | 0.632 | 0.672 | 0.6 | 0.613 | 0.673
HCC-827 | 0.325 | – | 0.441 | 0.363 | 0.401 | 0.821 | – | 1.1 | 0.962 | 1.05 | 0.26 | – | 0.469 | 0.45 | 0.518 | 0.323 | – | 0.432 | 0.317 | 0.413
HOP-62 | 0.375 | 0.399 | 0.411 | 0.395 | 0.364 | 0.721 | 1.02 | 0.824 | 0.861 | 0.984 | 0.464 | 0.509 | 0.537 | 0.473 | 0.492 | 0.649 | 0.704 | 0.737 | 0.604 | 0.773
IA-LM | – | – | – | – | – | 0.541 | 0.898 | 0.733 | 0.625 | 0.702 | – | – | – | – | – | – | – | – | – | –
LC-2-ad | 0.451 | 0.489 | 0.486 | 0.474 | 0.374 | 0.926 | 0.871 | 0.924 | 0.968 | 0.915 | 0.477 | 0.516 | 0.5 | 0.524 | 0.499 | 0.58 | 0.604 | 0.655 | 0.573 | 0.503
NCI-H522 | 0.5 | 0.552 | 0.445 | 0.586 | 0.483 | – | – | – | – | – | 1.13 | 1.07 | 1.06 | 0.932 | 0.859 | 0.585 | 0.599 | 0.692 | 0.593 | 0.603
NCI-H596 | 0.777 | 0.856 | 0.775 | 0.744 | 0.731 | 0.608 | 0.442 | 0.506 | 0.441 | 0.561 | – | – | – | – | – | 0.597 | 0.724 | 0.842 | 0.722 | 0.66
NCI-H1299 | – | – | – | – | – | 0.999 | 1.07 | 1 | 1.05 | 1.08 | – | – | – | – | – | – | – | – | – | –
NCI-H1563 | – | – | – | – | – | 0.858 | 0.96 | 0.802 | 0.778 | 0.677 | – | – | – | – | – | 0.638 | 0.67 | 0.595 | 0.514 | 0.512
NCI-H1648 | 0.304 | 0.58 | 0.469 | 0.399 | 0.44 | – | – | – | – | – | 0.266 | – | 0.256 | 0.273 | 0.227 | – | – | – | – | –
NCI-H1650 | 0.498 | – | 0.464 | 0.289 | 0.356 | – | – | – | – | – | 0.298 | 0.375 | 0.28 | 0.182 | 0.249 | 0.369 | – | 0.399 | 0.187 | 0.365
NCI-H1703 | – | – | – | – | – | 0.331 | 0.394 | 0.348 | 0.332 | 0.359 | – | – | – | – | – | – | – | – | – | –
NCI-H1792 | – | – | – | – | – | 0.634 | 0.755 | 0.898 | 0.706 | 0.456 | 0.637 | 0.733 | 0.61 | 0.655 | 0.532 | 0.288 | 0.233 | 0.259 | 0.315 | 0.262
NCI-H2342 | 0.415 | 0.49 | 0.655 | 0.536 | 0.505 | – | – | – | – | – | 0.523 | 0.529 | 0.513 | 0.666 | 0.611 | 0.574 | 0.629 | 0.704 | 0.572 | 0.657
SW 900 | 0.55 | 0.552 | 0.495 | 0.484 | 0.429 | – | – | – | – | – | 0.52 | 0.528 | 0.534 | 0.453 | 0.528 | 0.639 | 0.702 | 0.559 | 0.196 | 0.279
